Results on 28 compounds are retold here after patent US9725449B2, “Tricyclic compounds as anticancer agents” (BRISTOL-MYERS SQUIBB COMPANY, priority 2015, dated 2017).

What is called IC50 is the midpoint of a concentration-inhibition curve.

The assay addresses BRD4 (Homo sapiens, UniProt O60885). The assay can be described thus: Time resolved fluorescence resonance energy transfer (TR-FRET) binding assay, bromodomain BRD4. Particulars: one of the FRET assays described; read-out: FRET BRD4 IC50. A general note: TR-FRET usually uses a lanthanide donor and a delayed reading to cut background.

As to `Cc1nnn(C)c1-c1cnc2c3ccc(-c4ccnn4C)nc3n([C@H](c3ccccc3F)C3CCOCC3)c2c1` [Example 229, 5-(Dimethyl-1H-1,2,3-triazol-5-yl)-8-[(S)-(2-fluorophenyl)(oxan-4-yl)methyl]-11-(1-methyl-1H-pyrazol-5-yl)-3,8,10-triazatricyclo[7.4.0.0^2,^7]trideca-1(13),2(7),3,5,9,11-hexaene], the IC50 was less than 10 nM.
To `Cc1nnn(C)c1-c1cnc2c3cnc(Cl)cc3n([C@H](c3ccc(Cl)cn3)C3CCOCC3)c2c1` [Example 323] belongs less than 10 nM.
In the case of `Cc1nnn(C)c1-c1ccc2c3ncc(C(C)(C)O)cc3n([C@H](c3ccccc3)C3CCOCC3)c2n1` [Example 380] it was less than 10 nM.
To `CC(=O)c1cc2c(cn1)c1ncc(-c3c(C)noc3C)cc1n2[C@H](c1ccc(F)cc1)C1CCOCC1` [Example 330, 1-[5-(Dimethyl-1,2-oxazol-4-yl)-8-[(S)-(4-fluorophenyl)(oxan-4-yl)methyl]-3,8,12-triazatricyclo[7.4.0.0^2,^7]trideca-1(9),2(7),3,5,10,12-hexaen-11-yl]ethan-1-one] belongs less than 10 nM; to `[2H]C([2H])([2H])c1nnn(C)c1-c1cnc2c3c(OC)ncc(S(C)(=O)=O)c3n(C(c3ncccc3F)C3CCOCC3)c2c1` (stereo not shown) [Example 64, 8-[(3-Fluoropyridin-2-yl)(oxan-4-yl)methyl]-10-methanesulfonyl-13-methoxy-5-[4-(^2H3)methyl-1-methyl-1H-1,2,3-triazol-5-yl]-3,8,12-triazatricyclo[7.4.0.0^2,^7]trideca-1(13),2(7),3,5,9,11-hexaene], less than 1 nM; to `Cc1noc(C)c1-c1cnc2c3ccc(N4CCS(=O)(=O)CC4)nc3n([C@H](c3ccccc3)C3CCOCC3)c2c1` [Example 209, 4-[5-(Dimethyl-1,2-oxazol-4-yl)-8-[(S)-oxan-4-yl(phenyl)methyl]-3,8,10-triazatricyclo[7.4.0.0^2,^7]trideca-1(9),2(7),3,5,10,12-hexaen-11-yl]-1λ^6,4-thiomorpholine-1,1-dione], less than 10 nM.
`CCCC(c1ccc(F)cn1)n1c2cc(-c3c(C)nnn3C)ncc2c2ncc(C(C)(C)O)cc21` (single isomer, unassigned) [Example 375]: the IC50 was less than 1500 nM.
In the case of `[2H]C([2H])([2H])c1nnn(C)c1-c1cnc2c3c(OCC(C)C)ncc(S(C)(=O)=O)c3n([C@H](c3ccccc3)C3CCOCC3)c2c1` [Example 108, 10-Methanesulfonyl-5-[4-(^2H3)methyl-1-methyl-1H-1,2,3-triazol-5-yl]-13-(2-methylpropoxy)-8-[(S)-oxan-4-yl(phenyl)methyl]-3,8,12-triazatricyclo[7.4.0.0^2,^7]trideca-1(13),2(7),3,5,9,11-hexaene] it was less than 10 nM.
In the case of `CCCC(c1ccccc1)n1c2cc(-c3c(C)nnn3C)ncc2c2ncc(C(C)(C)O)cc21` (stereo not shown) [Example 372] it was less than 1500 nM; in that of `Cc1noc(C)c1-c1cnc2c3cc(C(C)(C)O)cnc3n([C@H](c3ccccc3)C3CCOCC3)c2c1` [Example 351, 2-[5-(Dimethyl-1,2-oxazol-4-yl)-8-[(S)-oxan-4-yl(phenyl)methyl]-3,8,10-triazatricyclo[7.4.0.0^2,^7]trideca-1(13),2(7),3,5,9,11-hexaen-12-yl]propan-2-ol], less than 1500 nM.
In the case of `COc1ncc(S(C)(=O)=O)c2c1c1ncc(-c3c(C)nnn3C)cc1n2[C@H](c1ccccc1)C1CCOCC1` [Example 46, 5-(Dimethyl-1H-1,2,3-triazol-5-yl)-10-methanesulfonyl-13-methoxy-8-[(S)-oxan-4-yl(phenyl)methyl]-3,8,12-triazatricyclo[7.4.0.0^2,^7]trideca-1(13),2(7),3,5,9,11-hexaene], the IC50 was less than 10 nM.
To `CCOc1ncc(S(C)(=O)=O)c2c1c1ncc(-c3c(C)nnn3C)cc1n2[C@H](c1ccccc1)C1CCOCC1` [Example 53, 5-(Dimethyl-1H-1,2,3-triazol-5-yl)-13-ethoxy-10-methanesulfonyl-8-[(S)-oxan-4-yl(phenyl)methyl]-3,8,12-triazatricyclo[7.4.0.0^2,^7]trideca-1(13),2(7),3,5,9,11-hexaene] belongs less than 1 nM; to `[2H]C([2H])([2H])c1nnn(C)c1-c1cnc2c3ccc(N4CCNCC4)nc3n([C@H](c3ccccc3)C3CCOCC3)c2c1` [Example 251, 5-[4-(^2H3)Methyl-1-methyl-1H-1,2,3-triazol-5-yl]-8-[(S)-oxan-4-yl(phenyl)methyl]-11-(piperazin-1-yl)-3,8,10-triazatricyclo[7.4.0.0^2,^7]trideca-1(13),2(7),3,5,9,11-hexaene], less than 10 nM; to `[2H]C([2H])([2H])c1nnn(C)c1-c1cnc2c3c(OC(C)C)ncc(S(C)(=O)=O)c3n([C@H](c3ccccc3)C3CCOCC3)c2c1` [Example 58, 10-Methanesulfonyl-5-[4-(^2H3)methyl-1-methyl-1H-1,2,3-triazol-5-yl]-8-[(S)-oxan-4-yl(phenyl)methyl]-13-(propan-2-yloxy)-3,8,12-triazatricyclo[7.4.0.0^2,^7]trideca-1(13),2(7),3,5,9,11-hexaene], less than 1 nM.
In the case of `[2H]C([2H])([2H])c1nnn(C)c1-c1cnc2c3ccncc3n([C@H](c3ccccc3)C3CCOCC3)c2c1` [Example 299, 5-[4-(^2H3)Methyl-1-methyl-1H-1,2,3-triazol-5-yl]-8-[(S)-oxan-4-yl(phenyl)methyl]-3,8,11-triazatricyclo[7.4.0.0^2,^7]trideca-1(9),2(7),3,5,10,12-hexaene] it was less than 1 nM; in that of `Cc1nnn(C)c1-c1cnc2c3ccnc(Cl)c3n([C@H](c3ccccc3)C3CCOCC3)c2c1` [Example 6, 10-Chloro-5-(dimethyl-1H-1,2,3-triazol-5-yl)-8-[(S)-oxan-4-yl(phenyl)methyl]-3,8,11-triazatricyclo[7.4.0.0^2,^7]trideca-1(13),2(7),3,5,9,11-hexaene], less than 1 nM.
For `[2H]C([2H])([2H])c1nnn(C)c1-c1cnc2c3ccc(N4CC(N5CCS(=O)(=O)CC5)C4)nc3n([C@H](c3ccccc3)C3CCOCC3)c2c1` [Example 186, 4-(1-{5-[4-(^2H3)Methyl-1-methyl-1H-1,2,3-triazol-5-yl]-8-[(S)-oxan-4-yl(phenyl)methyl]-3,8,10-triazatricyclo[7.4.0.0^2,^7]trideca-1(9),2(7),3,5,10,12-hexaen-11-yl}azetidin-3-yl)-1λ^6,4-thiomorpholine-1,1-dione], the half-maximal inhibitory concentration (IC50) was less than 10 nM.
To `[2H]C([2H])([2H])c1nnn(C)c1-c1cnc2c3c(OC)nc(C(C)(C)O)cc3n(C(c3ccccc3)C3CCC(F)(F)CC3)c2c1` (stereo not shown) [Example 345, 2-{8-[(4,4-Difluorocyclohexyl)(phenyl)methyl]-13-methoxy-5-[4-(^2H3)methyl-1-methyl-1H-1,2,3-triazol-5-yl]-3,8,12-triazatricyclo[7.4.0.0^2,^7]trideca-1(13),2(7),3,5,9,11-hexaen-11-yl}propan-2-ol] belongs less than 1 nM.
In the case of `CC(=O)c1ccc2c3ncc(-c4c(C)nnn4C)cc3n([C@H](c3ccccc3)C3CCOCC3)c2n1` [Example 171, 1-[5-(Dimethyl-1H-1,2,3-triazol-5-yl)-8-[(S)-oxan-4-yl(phenyl)methyl]-3,8,10-triazatricyclo[7.4.0.0^2,^7]trideca-1(9),2(7),3,5,10,12-hexaen-11-yl]ethan-1-one] it was less than 10 nM; in that of `Cc1nnn(C)c1-c1cnc2c3ccnc(F)c3n([C@H](c3ccccc3F)C3CCOCC3)c2c1` [Example 29, 5-(Dimethyl-1H-1,2,3-triazol-5-yl)-10-fluoro-8-[(S)-(2-fluorophenyl)(oxan-4-yl)methyl]-3,8,11-triazatricyclo[7.4.0.0^2,^7]trideca-1(13),2(7),3,5,9,11-hexaene], less than 1 nM; in that of `Cc1nnn(C)c1-c1cnc2c3ccc(-c4cnn(C5CC5)c4)nc3n([C@H](c3ccccc3)C3CCOCC3)c2c1` [Example 150, 11-(1-Cyclopropyl-1H-pyrazol-4-yl)-5-(dimethyl-1H-1,2,3-triazol-5-yl)-8-[(S)-oxan-4-yl(phenyl)methyl]-3,8,10-triazatricyclo[7.4.0.0^2,^7]trideca-1(13),2(7),3,5,9,11-hexaene], less than 1 nM.
In the case of `[2H]C([2H])([2H])c1nnn(C)c1-c1cnc2c3c(Cl)cnc(Cl)c3n([C@H](c3ccccc3)C3CCOCC3)c2c1` [Example 296, 10,13-Dichloro-5-[4-(^2H3)methyl-1-methyl-1H-1,2,3-triazol-5-yl]-8-[(S)-oxan-4-yl(phenyl)methyl]-3,8,11-triazatricyclo[7.4.0.0^2,^7]trideca-1(9),2(7),3,5,10,12-hexaene] it was less than 1 nM.
For `CSc1ccc2c3ncc(-c4c(C)nnn4C)cc3n([C@H](c3ccccc3)C3CCOCC3)c2n1` [Example 194, 5-(Dimethyl-1H-1,2,3-triazol-5-yl)-11-(methylsulfanyl)-8-[(S)-oxan-4-yl(phenyl)methyl]-3,8,10-triazatricyclo[7.4.0.0^2,^7]trideca-1(9),2(7),3,5,10,12-hexaene], the IC50 is less than 10 nM.
In the case of “2-{13-Methoxy-5-[4-(^2H3)methyl-1-methyl-1H-1,2,3-triazol-5-yl]-8-[(S)-oxan-4-yl(phenyl)methyl]-3,8,12-triazatricyclo[7.4.0.0^2,^7]trideca-1(13),2(7),3,5,9,11-hexaen-11-yl}propan-2-ol [Example 344]” it was less than 10 nM; in that of `[2H]C([2H])([2H])c1nnn(C)c1-c1cc2c(cn1)c1ncc(C(C)(C)O)cc1n2C(c1ncccc1F)C1CCOCC1` (single isomer, unassigned) [Example 367], less than 10 nM; in that of `Cc1noc(C)c1-c1cc2c(cn1)c1ncc(C(C)(C)O)cc1n2[C@H](c1ccccc1)C1CCOCC1` [Example 369], less than 10 nM.
Consider `CCCC(c1ccc(F)cn1)n1c2cc(-c3c(C)nnn3C)ncc2c2ncc(C(C)(C)O)cc21` (single isomer, unassigned) [Example 376], for which the IC50 is less than 10 nM.
To `COC(=O)c1cnc(OC)c2c3ncc(-c4c(C)noc4C)cc3n([C@H](c3ccccc3)C3CCOCC3)c12` [Example 140, Methyl 5-(dimethyl-1,2-oxazol-4-yl)-13-methoxy-8-[(S)-oxan-4-yl(phenyl)methyl]-3,8,12-triazatricyclo[7.4.0.0^2,^7]trideca-1(13),2(7),3,5,9,11-hexaene-10-carboxylate] belongs less than 1 nM.
